From a compilation of properties of binary mixtures (doi:10.1016/j.molliq.2022.120564)

Test: xn = mol fraction of the nth substance listed
Settings: 298.15 K, 101.3 kPa

In the case of `CC(=O)[O-].CCCC[N+]1(C)CCCC1` + O, the electrical conductivity (x1 = 0.005) is reported as 1.84 S/m, the electrical conductivity (x1 = 0.029) is reported as 2.8 S/m and the electrical conductivity (x1 = 0.046) is reported as 2.63 S/m. It also gave an electrical conductivity (x1 = 0.069) of 2.17 S/m, an electrical conductivity (x1 = 0.095) of 1.79 S/m and an electrical conductivity (x1 = 0.111) of 1.26 S/m. The electrical conductivity (x1 = 0.138) was 1.18 S/m, the electrical conductivity (x1 = 0.215) was 0.8 S/m and the electrical conductivity (x1 = 0.253) was 0.575 S/m. For the same molecule, the electrical conductivity (x1 = 0.305) was 0.495 S/m, the electrical conductivity (x1 = 0.396) was 0.339 S/m and the electrical conductivity (x1 = 0.5) was 0.193 S/m. For the same molecule, the electrical conductivity (x1 = 0.658) was 0.142 S/m.
